# Patent US12649750B2, “Macrocyclic compounds, compositions, and methods of using thereof” (Sionna Therapeutics Inc., priority 2022, dated 2026)
# Target: T1, NBD1 (Homo sapiens, UniProt P13569)
# T1 construct: Purified recombinant NBD1 was produced using previously described methods; made in house
# Assay: Aggregation analysis using differential static light scattering (DSLS), thermal stability of NBD1 (ΔTagg)
# Assay type: binding
# Conditions: ΔTagg versus DMSO control, NBD1 0.2 mg/ml
# Protocol: Example 386. Aggregation Analysis Using Differential Static Light Scattering (DSLS)
# Purified recombinant NBD1 was produced using previously described methods (A. Schmidt, J. L. Mendoza, P. J. Thomas (2011) Biochemical and Biophysical Approaches to Probe CFTR Structure (365-376) M. D. Amaral, K. Kunzelmann (eds.), Cystic Fibrosis, Methods in Molecular Biology 741, Springer Science+Business Media). The effect of test compounds on thermal stability of NBD1 was evaluated by differential static light scattering (DSLS) using the Harbinger Stargazer-384 instrument (Epiphyte Three, Toronto, Canada). Test compounds were dissolved and diluted to desired concentrations in 100% DMSO. The compounds or DMSO controls (100 nL) were stamped into wells of a […] low volume optical plate (Corning Inc., Corning, NY) using the Echo 555 acoustic liquid handler (Labcyte Inc., San Jose, CA).
# NBD1 protein was diluted to 0.2 mg/ml in S200 buffer (50 mM Tris-HCl, 150 mM NaCl, 5 mM MgCl2, 2 mM ATP, 2 mM DTT, pH7.6) containing 1% glycerol. 10 uL of protein solution was aliquoted into the 384-well plate harboring the test compounds and 10 uL mineral oil was overlaid onto the protein solution, using the epMotion robotic liquid handler (Eppendorf North America, Hauppauge, NY). After placing into the Stargazer instrument, the plate was heated at 1° C. per minute to 70° C. Images were captured from 25° C. to 70° C. every 0.5° C. At the end of the experiment run, instrument software integrated image files and analyzed data automatically. A […] regression curve was generated for each well, representing the increase in light scattering over time. A temperature of aggregation (Tagg) was calculated based on the inflection point of the curve. To better compare data across experiments the average Tagg for DMSO control wells was calculated and subtracted from values for wells containing compounds to obtain a “ΔTagg” value. These ΔTagg values reflect stabilizing efficacy of the compounds. As set forth in Table 2 below, an ΔTagg value less than or equal to 5° C. is marked “A”; a value above 5° C. and less than or equal to 10° C. is marked “B”; a value greater than 10° C. and less than or equal to 25° C. is marked “C”.
# T1 sequence (P13569 423-646 limits assumed): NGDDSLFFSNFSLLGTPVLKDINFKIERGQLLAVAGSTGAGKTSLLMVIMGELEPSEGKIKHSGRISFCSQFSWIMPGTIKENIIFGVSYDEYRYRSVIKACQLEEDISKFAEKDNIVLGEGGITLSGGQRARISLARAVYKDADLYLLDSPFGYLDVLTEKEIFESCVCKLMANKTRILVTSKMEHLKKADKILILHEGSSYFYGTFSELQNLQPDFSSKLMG
row,Structure (SMILES),DSLS 3D (100 μM ΔT)
1,"C[C@@H](Cc1cccc(C2CCCC(C)(C)CS(=O)(=O)CCc3c(c(F)cc4[nH]ccc34)Oc3ccc(F)c(c3)-c3c(C#N)cnn32)c1)C(=O)O (mixture of isomers) [Compound 151, (2S)-3-[3-(3-Cyano-23,29-difluoro-11,11-dimethyl-13,13-dioxo-25-oxa-13λ6-thia-5,6,20-triazapentacyclo[24.3.1.02,6.016,24.017,21]triaconta-1(30),2,4,16,18,21,23,26,28-nonaen-7-yl)phenyl]-2-methyl-propanoic Acid]",A (an ΔTagg value less than or equal to 5 °C is marked “A”)
2,"C[C@@H](Cc1cccc(C2CCCC(C)(C)CS(=O)(=O)CCc3c(c(F)cc4[nH]ccc34)Oc3ccc(F)c(c3)-c3nn2cc3C#N)c1)C(=O)O (mixture of isomers) [Compound 152, (2S)-3-[3-(3-Cyano-22,28-difluoro-10,10-dimethyl-12,12-dioxo-24-oxa-12λ6-thia-5,19,30-triazapentacyclo[23.3.1.12,5.015,23.016,20]triaconta-1(29),2(30),3,15,17,20,22,25,27-nonaen-6-yl)phenyl]-2-methyl-propanoic Acid]",C (a value greater than 10 °C and less than or equal to 25 °C is marked “C”)
3,"C[C@H](Cc1cccc(C2NCC(F)(F)CCS(=O)(=O)CCc3c(c(F)c(F)c4[nH]ccc34)Oc3ccc(F)c(c3)-c3nc2nn3C)c1)C(=O)O (mixture of isomers) [Compound 380, (2R)-2-Methyl-3-[3-(9,9,21,22,28-pentafluoro-3-methyl-12,12-dioxo-24-oxa-12λ6-thia-3,4,7,19,30-pentazapentacyclo[23.3.1.12,5.015,23.016,20]triaconta-1(29),2(30),4,15,17,20,22,25,27-nonaen-6-yl)phenyl]propanoic Acid]",A (an ΔTagg value less than or equal to 5 °C is marked “A”)
4,"CC1(C)CS(=O)(=O)CCc2c(c(F)cc3[nH]ccc23)Oc2ccc(F)c(c2)-c2ccnn2C(c2cccc(CCC(=O)O)c2)CCO1 (single isomer, unassigned) [Compound 88, 3-[3-(23,29-Difluoro-11,11-dimethyl-13,13-dioxo-10,25-dioxa-13λ6-thia-5,6,20-triazapentacyclo[24.3.1.02,6.016,24.017,21]triaconta-1(30),2,4,16,18,21,23,26,28-nonaen-7-yl)phenyl]propanoic Acid]",A (an ΔTagg value less than or equal to 5 °C is marked “A”)
5,"Cn1nc2nc1-c1cc(ccc1F)Oc1c(F)cc3[nH]ccc3c1CCS(=O)(=O)CC(C)(C)COCC2(C)c1cccc(CCC(=O)O)c1 (single isomer, unassigned) [Compound 89A, 3-[3-(22,28-difluoro-3,6,10,10-tetramethyl-12,12-dioxo-8,24-dioxa-12λ6-thia-3,4,19,30-tetrazapentacyclo[23.3.1.12,5.015,23.016,20]triaconta-1(29),2(30),4,15,17,20,22,25,27-nonaen-6-yl)phenyl]propanoic Acid]",C (a value greater than 10 °C and less than or equal to 25 °C is marked “C”)
6,"Cn1nc2nc1-c1cc(ccc1F)Oc1c(F)cc3[nH]ccc3c1CCS(=O)(=O)CC(C)(C)COCC2(C)c1cccc(CCC(=O)O)c1 (single isomer, unassigned) [Compound 89B, 3-[3-(22,28-difluoro-3,6,10,10-tetramethyl-12,12-dioxo-8,24-dioxa-12λ6-thia-3,4,19,30-tetrazapentacyclo[23.3.1.12,5.015,23.016,20]triaconta-1(29),2(30),4,15,17,20,22,25,27-nonaen-6-yl)phenyl]propanoic Acid]",A (an ΔTagg value less than or equal to 5 °C is marked “A”)
7,"Cn1nc2nc1-c1cc(ccc1F)Oc1c(F)cc3[nH]ccc3c1CCS(=O)(=O)CC(C)(C)CCCC2(C)c1cccc(C(O)CO)c1 (single isomer, unassigned) [Compound 90A, 1-[3-(22,28-difluoro-3,6,10,10-tetramethyl-12,12-dioxo-24-oxa-12λ6-thia-3,4,19,30-tetrazapentacyclo[23.3.1.12,5.015,23.016,20]triaconta-1(29),2(30),4,15,17,20,22,25,27-nonaen-6-yl)phenyl]ethane-1,2-diol]",C (a value greater than 10 °C and less than or equal to 25 °C is marked “C”)
8,"Cn1nc2nc1-c1cc(ccc1F)Oc1c(F)cc3[nH]ccc3c1CCS(=O)(=O)CC(C)(C)CCCC2(C)c1cccc(C(O)CO)c1 (single isomer, unassigned) [Compound 90B, 1-[3-(22,28-difluoro-3,6,10,10-tetramethyl-12,12-dioxo-24-oxa-12λ6-thia-3,4,19,30-tetrazapentacyclo[23.3.1.12,5.015,23.016,20]triaconta-1(29),2(30),4,15,17,20,22,25,27-nonaen-6-yl)phenyl]ethane-1,2-diol]",A (an ΔTagg value less than or equal to 5 °C is marked “A”)
9,"CC(Cc1cccc(C2(CNCC(F)F)CCCC(C)(C)CS(=O)(=O)CCc3c(c(F)cc4[nH]ccc34)Oc3ccc(F)c(c3)-c3nc2nn3C)c1)C(=O)O (single isomer, unassigned) [Compound 137A, 3-[3-[6-[(2,2-difluoroethylamino)methyl]-22,28-difluoro-3,10,10-trimethyl-12,12-dioxo-24-oxa-12λ6-thia-3,4,19,30-tetrazapentacyclo[23.3.1.12,5.015,23.016,20]triaconta-1(29),2(30),4,15,17,20,22,25,27-nonaen-6-yl]phenyl]-2-methyl-propanoic Acid]",C (a value greater than 10 °C and less than or equal to 25 °C is marked “C”)
10,"C[C@@H](Cc1cncc(C2(C)CCCC(C)(C)CS(=O)(=O)CCc3c(c(F)cc4[nH]ccc34)Oc3ccnc(c3)-c3nc2nn3C)c1)C(=O)O (single isomer, unassigned) [Compound 299A]",A (an ΔTagg value less than or equal to 5 °C is marked “A”)
11,"C[C@@H](Cc1cncc(C2(C)CCCC(C)(C)CS(=O)(=O)CCc3c(c(F)cc4[nH]ccc34)Oc3ccnc(c3)-c3nc2nn3C)c1)C(=O)O (single isomer, unassigned) [Compound 299B]",B (a value above 5 °C and less than or equal to 10 °C is marked “B”)
12,"C[C@@H](Cc1cncc(C2(C)CCCC(C)(C)CS(=O)(=O)CCc3c(c(F)c(F)c4[nH]ccc34)Oc3ccnc(c3)-c3nc2nn3C)n1)C(=O)O (single isomer, unassigned) [Compound 300A]",A (an ΔTagg value less than or equal to 5 °C is marked “A”)
13,"C[C@@H](Cc1cncc(C2(C)CCCC(C)(C)CS(=O)(=O)CCc3c(c(F)c(F)c4[nH]ccc34)Oc3ccnc(c3)-c3nc2nn3C)n1)C(=O)O (single isomer, unassigned) [Compound 300B]",A (an ΔTagg value less than or equal to 5 °C is marked “A”)
14,"Cn1nc2nc1-c1cc(ccc1F)[S+]([O-])c1c(F)cc3[nH]ccc3c1CCS(=O)(=O)CC(C)(C)CCC[C@]2(C)c1cccc([C@H](O)CO)c1 (single isomer, unassigned) [Compound 302B]",B (a value above 5 °C and less than or equal to 10 °C is marked “B”)
15,"Cn1nc2nc1-c1cc(ccc1F)[S+]([O-])c1c(F)c(F)c3[nH]ccc3c1CCS(=O)(=O)CC(C)(C)CCC[C@]2(C)c1cccc(CC2(C(=O)O)CC2)c1 (single isomer, unassigned) [Compound 303B]",A (an ΔTagg value less than or equal to 5 °C is marked “A”)
16,"Cn1nc2nc1-c1cc(ccn1)[S+]([O-])c1c(F)c(F)c3[nH]ccc3c1CCS(=O)(=O)CC(C)(C)CCC[C@]2(C)c1cccc(CC2(C(=O)O)CC2)c1 (single isomer, unassigned) [Compound 309]",B (a value above 5 °C and less than or equal to 10 °C is marked “B”)
17,"C[C@@H](Cc1cccc(C2(C)CCCC(C)(C)CS(=O)(=O)CCc3c(c(F)cc4[nH]ccc34)Sc3ccnc(c3)-c3nc2nn3C)n1)C(=O)O (single isomer, unassigned) [Compound 314A]",A (an ΔTagg value less than or equal to 5 °C is marked “A”)
18,"C[C@@H](Cc1cccc(C2(C)CCCC(C)(C)CS(=O)(=O)CCc3c(c(F)cc4[nH]ccc34)Sc3ccnc(c3)-c3nc2nn3C)n1)C(=O)O (single isomer, unassigned) [Compound 314B]",B (a value above 5 °C and less than or equal to 10 °C is marked “B”)
19,"C[C@@H](Cc1cccc(C2(C)CCCC(C)(C)CS(=O)(=O)CCc3c(c(F)cc4[nH]ccc34)[S+]([O-])c3ccnc(c3)-c3nc2nn3C)n1)C(=O)O (single isomer, unassigned) [Compound 315A]",A (an ΔTagg value less than or equal to 5 °C is marked “A”)
